We go through seven compounds from patent publication US20120059021A1, “COMPOSITIONS AND METHODS FOR TREATING CANCER AND METHODS FOR PREDICTING A RESPONSE TO SUCH TREATMENTS” (UNIVERSITY OF WASHINGTON, priority 2008, published 2012).

The test system of test [1] is ppERK1/2. Put plainly: Immunoblot for dual-phosphorylated ERK1/2 in melanoma cells. Format: cell-based, human. The settings on record: for dual-phosphorylated ERK1/2 (ppERK1/2): A375. The source says:
By way of non-limiting example, inhibition of ERK signaling can be measured by determining the level of dual-phosphorylated ERK1/2 (ppERK1/2) as described in detail elsewhere herein. In brief, the level of ppERK1/2 can be detected by immunoblot assay.
A general note: A western blot detects proteins with antibodies after separation by electrophoresis.

Test [2] concerns Wnt/β-catenin signaling. Put plainly: β-catenin activated reporter (BAR) luciferase assay in A375 melanoma cells. To be noted: for Wnt/β-catenin signaling (BAR activity): A375, in the presence of WNT3A.
From the text: By way of non-limiting example, Wnt/β-catenin signaling can be measured using the BAR reporter described in detail elsewhere herein. Briefly, the BAR (β-catenin activated reporter) is a lentiviral plasmid which provides for expression of luciferase in response to Wnt/β-catenin signaling. Output can be measured with an automated luminescence plate reader.
Detailed information on the β-catenin activated reporter (BAR) has been previously described (23). Briefly, the β-catenin activated reporter (pBAR) is a lentiviral plasmid that contains 12 TCF/LEF binding sites (5′-[sequence]-3′) each separated by distinct 5 base-pair linkers upstream of a minimal promoter and the firefly luciferase open reading frame. The reporter also contains a separate PGK promoter that constitutively drives the expression of a puromycin resistance gene for mammalian cell selection. […] PLX4720 was purchased from Symansis (Australia cat# SY-PLX4720). CHIR99021 was purchased from Axon MedChem (Gronigen, Netherlands catalog #Axon1386). Z-VAD-FMK was purchased from R&D systems (Minneapolis, Minn. cat# FMKSP01).
Low throughput BAR reporter assays. Cells were plated in 96-well plates.
The test system of test [3] is A375 cells. Put plainly: Immunoblot of apoptosis markers (cleaved caspase-3, cleaved PARP1) in A375 cells. The class given is cell-based, human.
The test system of test [4] is GSK3β. Kind of test: Immunoblot for activating auto-phosphorylation of GSK3β in A375 cells. Format: cell-based, human.
In test [5] the test system is AXIN1. Kind of test: Immunoblot of steady-state AXIN1 levels in melanoma cells. The class given is cell-based, human. To be noted: for levels of AXIN1 following treatment with WNT3A and PLX4720: A375, 10 μM, 8 hours, WNT3A CM and 2 μM PLX4720.
Test [6] has as its system β-catenin. Kind of test: Immunoblot for β-catenin phosphorylation at Ser33/Ser37/Thr41 in A375 cells. Format: cell-based, human.
Test [7] has as its system A375. Kind of test: qPCR of endogenous Wnt target gene AXIN2, A375. The class given is cell-based, human. The settings on record: A375, stimulated Wnt/β-catenin signaling. The text has this: RNA purification and qRT-PCR analysis. RNA was purified using the RNeasy kit following the manufacturer's protocol (Qiagen; Maryland, Md.). cDNA was synthesized using RevertAid™ M-MuLV Reverse Transcriptase (Fermentas; Ontario, CAN). Light Cycler FastStart DNA Master SYBR Green1 (Roche; Mannheim, Germany) was used for real-time PCR as previously described (53). Quantitative PCR results presented in the manuscript are averages of a minimum of three biologic replicates.
A general note: In qPCR the cycle at which signal appears reflects the starting amount.

For test [8], the system named is ERK1/2 phosphorylation. Kind of test: ERK1/2 phosphorylation in human epidermal melanocytes. Format: cell-based. The settings on record: HEMs. The source says: Cell Lines. The human melanoma cell lines A375, A2058 and Me1624 were obtained from Cassian Yee (Fred Hutchinson Cancer Research Institute; Seattle, Wash.). The human melanoma cell lines COLO-829, SKMEL28, SKMEL5 were purchased from ATCC (Manassas, Va.). Human Epidermal Melanocytes, adult, lightly pigmented donor, (HEMa-LP) (C0245C) were purchased from Invitrogen (Carlsbad, Calif.). Stable BAR cell lines were generated as previously described (23). BAR luciferase cell lines were also infected with a lentivirus carrying Renilla luciferase driven by a constitutive EFlalpha promoter.
Cell Culture. The human melanoma lines A375, A2058 were cultured in DMEM supplemented with 5% FBS and 1% antibiotic. The human melanoma lines SK-MEL-5 and SK-MEL-28 were grown in EMEM supplemented with 10% FBS and 1% antibiotic. The human melanoma lines COLO-829 and MEL-624 were grown in RPMI supplemented with 10% FBS and 1% antibiotic HEMa-LP cells were cultured in medium 254 supplemented with 1% HMGS and 1% antibiotic (Invitrogen Carlsbad, Calif.). Synthetic siRNAs were transfected into cultured cells at a final concentration of 20 nM using RNAiMAX (Invitrogen; Grand Island, N.Y.).

The test system of test [9] is Wnt/β-catenin signaling. Put plainly: WNT3A-mediated reporter activity in primary melanocytes. The class given is cell-based, human. The settings on record: HEMs.
Test [10] relates to BAD and Bim (BCL2L11). Kind of test: Immunoblot of BH3-only proteins BAD and Bim in A375 cells. The class given is cell-based, human. The settings on record: A375, addition of Z-VAD-FMK, 24 hours.
Setting [11] is: XAV939 in the presence of U0126 or PLX4720.

“Also recorded” adds a separate entry of the source. Where a SMILES comes first, the peptide text is derived from it. The star is where a group is joined. Cbz = O=C(OCc1ccccc1)*; CH2F = FC*

Turning to `Cn1cnc2c(F)c(Nc3ccc(Br)cc3Cl)c(C(=O)NOCCO)cc21` [AZD6244, 6-(4-Bromo-2-chloro-phenylamino)-7-fluoro-3-methyl-3H-benzoimidazole-5-carboxylic acid (2-hydroxy-ethoxy)-amide], the “dual-phosphorylated ERK1/2 (ppERK1/2)” value in [1] was “inhibition of ppERK1/2”. Further, in test [2], the “Wnt/β-catenin signaling (BAR activity)” value is reported as “synergistically enhanced Wnt/β-catenin activation”.
In the case of `Cc1c[nH]c(-c2cnc(NCCNc3ccc(C#N)cn3)nc2-c2ccc(Cl)cc2Cl)n1` [CHIR99021, 6-[[2-[[4-(2,4-dichlorophenyl)-5-(5-methyl-1H-imidazol-2-yl)-2-pyrimidinyl]amino]ethyl]amino]-3-pyridinecarbonitrile], in [3] (A375, 5 μM CHIR99021 and 2 μM PLX4720, 36 hours), the “apoptosis (cleaved caspase-3 immunoblot)” value is recorded as “enhanced apoptosis in combination with PLX4720”. In addition, in [4], the “activating auto-phosphorylation of GSK3B” value was “loss of the activating auto-phosphorylation at Tyr216”.
`CC(C)C[C@@H](C=O)NC(=O)[C@H](CC(C)C)NC(=O)[C@H](CC(C)C)NC(=O)OCc1ccccc1` [MG132] (Cbz-Leu-Leu-Leu-aldehyde): the “levels of AXIN1 following treatment with WNT3A and PLX4720” value in test [5] is recorded as “increased the levels of AXIN1”.
Turning to `N#CC(=C(/N)Sc1ccccc1N)/C(C#N)=C(\N)Sc1ccccc1N` [U0126, 1,4-diamino-2,3-dicyano-1,4-bis [2-aminophenylthio]butadiene], the “steady-state levels of AXIN1” value in [5] (absence of rWnt3A) is on record as “slightly decreased”; in test [5] (presence of rWnt3A) it was “markedly diminished”. The “phosphorylation of β-catenin at GSK3β sites (Ser33/Ser37/Thr41)” value in test [6] is on record as “decreased phosphorylation of β-catenin”. The “activating auto-phosphorylation of GSK3B” value in test [4] is given as “loss of the activating auto-phosphorylation of GSK3B at Tyr117”. Moreover, the “dual-phosphorylated ERK1/2 (ppERK1/2)” value in test [1] is given as “inhibition of ppERK1/2”. In addition, the ERK1/2 phosphorylation entry is given as “inhibition of ERK1/2 phosphorylation” in [1] (six established melanoma lines harboring the BRAF^V600E mutation) and “inhibits ERK1/2 phosphorylation in a dose-dependent manner” in test [8]. Besides, the “levels of the endogenous Wnt/β-catenin target gene AXIN2” value in test [7] was “dose-dependent increase”. Besides, in test [9], the Wnt/β-catenin signaling result was “inhibited Wnt/β-catenin signaling”. For the same compound, the “Wnt/β-catenin signaling (BAR activity)” value in [2] is given as “synergistically enhanced Wnt/β-catenin activation; also recorded: dose-dependent increase in stimulated Wnt/β-catenin signaling”.
As for `Oc1nc(-c2ccc(C(F)(F)F)cc2)nc2c1CSCC2` [XAV939], in test [5] (XAV939, absence and presence of rWnt3A), the “steady-state levels of AXIN1” value is reported as “increases steady-state levels of AXIN1”. Besides, the AXIN1 protein levels entry in [5] (setting [11]) was “elevate AX1N1 protein levels to above baseline levels”. Moreover, in [2] (setting [11]), the “reversal of enhancement of Wnt/β-catenin signaling by MAPK inhibition” value is recorded as “unable to completely reverse the enhancement of Wnt/β-catenin signaling by MAPK inhibition”.
Turning to `COC(=O)C[C@H](NC(=O)[C@H](C)NC(=O)[C@@H](NC(=O)OCc1ccccc1)C(C)C)C(=O)CF` [Z-VAD-FMK] (Cbz-Val-Ala-Asp(OMe)-CH2F), in [3] (A375, Z-VAD-FMK), the “apoptosis with WNT3A and PLX4720” value was “able to inhibit apoptosis”. Also, the “PARP1 cleavage induced by WNT3A and PLX4720” value in [3] (A375, addition of Z-VAD-FMK, 24 hours) is “completely abolished”. Further, in test [5] (A375, Z-VAD-FMK, 24 hours), the “loss of steady-state AXIN1 with WNT3A and PLX4720” value is recorded as “did not affect the loss of steady-state AXIN1”. Further, in test [10], the “increase in BimL and BimS with WNT3A and PLX4720” value is on record as “not blocked”. Besides, the “Wnt/β-catenin activation as measured by BAR” value in test [2] (A375, Z-VAD-FMK with WNT3A and 2 μM PLX4720, 24 hours) is reported as “augments Wnt/β-catenin activation”.
Take `CCN(CC)CCCC(C)Nc1ccnc2cc(Cl)ccc12` (stereo not drawn) [chloroquine]: in test [5], the “levels of AXIN1 following treatment with WNT3A and PLX4720” value is “not”.
